From patent US20020049157A1, “Use of proteasome inhibitors for treating cancer, inflammation, autoimmune disease, graft rejection and septic shock” (priority 1998, published 2002)

What was measured:
[1] = system: ICAM-1; assay: ICAM-1 expression on 2C TCR transgenic lymph node T cells (flow cytometry); format: cell-based, mouse; conditions: Con A plus 10 μM lactacystin; 24 h and 48 h
Experimental: After 24 h and 48 h, the cells were examined for ICAM-1 expression by flow cytometry, using FITC-anti-ICAM-1/1B2-PE. Monoclonal Ab 1B2 recognize a clonotypic determinant on the TCR of the transgenic T cells which are largely CD8 positive (>75%).
Cell-cell interaction is essential in antigen presentation and in T cell's help to T and B cells. The adhesion molecules are necessary to establish the cell-cell interaction. Blocking the adhesion molecules ICAM-1 and LFA-1 is known to inhibit immune responses and to suppress graft rejection. […] Therefore, inhibition of the proteasome activity will be a useful way to control undesirable immune responses during graft rejection, autoimmune diseases, and inflammation.

[2] = system: proteasome; assay: Proteasome activity in lysates of LAC-pretreated Jurkat cells (proteinase assay, sLLVY-MCA); format: cell-based; conditions: for proteasome activity in Jurkat cells: 3 h preincubation with LAC 6 μM
Experimental: B. The inhibitory effect of LAC on the proteasome activity was reversible in the cells Jurkat cells were pretreated with LAC (6 μM) in culture medium for 3 h. The cells were washed and recultured at 0.5×10^6 cells/ml for 0 h, 5 h or 21 h. The cells were then harvested, washed and sonicated. The lysate protein (20 μg/sample) was assayed for its proteinase activity under a condition at which 90% of the activity was attributed to the proteasome. The samples were in duplicates. The result is expressed as relative fluorescence intensity at 440 nm.
We used Jurkat cells that have high constitutive proteasome activity to evaluate the duration of LAC's effect once the drug entered the cells. Jurkat cells were treated with LAC (6 μM) for 3 h, which was sufficiently long for the compound to enter the cells as shown above. The cells were then thoroughly washed and recuitured, and they were harvested at 0 h, 5 h and 21 h after the wash, and the proteasome activity in the cell lysates was measured using a chromogenic chymotrypsin substrate. We have previously established that the proteinase activity measured by this assay was predominantly (more than 90%) derived from the proteasome (Wang et al., 1997, Eur. J. Immunol., supra).

[3] = system: Jurkat cells; assay: Cell cycle progress in synchronized Jurkat cells (propidium iodide flow cytometry); format: cell-based
Experimental: For the last 3 h of the treatment, LAC (6 μM) was added to the cultures destined to be treated by LAC later. The cells were then released by washing out nocodazole, and recultured in complete medium with or without 6 μM LAC. The cells were sampled at 0 h, 4 h and 8 h after the G2/M release, stained with propidium iodide, and analyzed with flow cytometry.
B. LAC slows the cell cycle progress from the G1/S boundary to the G2/M phase in synchronized Jurkat cells Jurkat cells were synchronized at the G1/S by isoleucine starvation followed by a hydroxyurea treatment. The synchronized cells were released by washing out hydroxyurea and were cultured in complete medium in the absence or presence of LAC (6 μM). The cells were sampled at 0 h, 3 h, 6 h, 9 h, 12 h, 15 h and 24 h after the release, and were stained with propidium iodide and analyzed with flow cytometry.
We used synchronized Jurkat cells to identify the LAC-sensitive phase(s) of the cell cycle. Jurkat cells were first synchronized at the G2/M boundary by nocodazole (FIG. 6A). […]
We next studied requirement of the proteasome activity for the progression from the G1/S boundary to the G2/M phase. […] It is to be noted that although the percentage of cells in the S/G2/M phase in the LAC-treated sample was similar to that of controls (the inset table of FIG. 6B), the peak of fluorescence was lagged behind (histogram array). […]

active duration within the cell and in the culture media [2]: about 16 h | time in which LAC loses its activity in the cells ([2]; Jurkat cells after 3 h LAC 6 μM and wash): ≤ 21 h
SMILES: CC(=O)N[C@@H](CSC(=O)[C@]1([C@@H](O)C(C)C)NC(=O)[C@H](C)[C@@H]1O)C(=O)O [LAC, lactacystin]
upregulation of ICAM-1 on CD8 positive T cells [1]: effectively block the upregulation of ICAM-1 | proteasome activity in Jurkat cells ([2]; 0 h after wash): almost completely inhibited | proteasome activity in Jurkat cells ([2]; 5 h after wash): still significantly inhibited | proteasome activity in Jurkat cells ([2]; 21 h after wash): returned to a near-normal level | cell cycle progression from the G1/S boundary to the G2/M phase ([3]; HU-synchronized, LAC 6 μM added immediately after release): slowed but did not block | progress from G2/M through M phase to G1 phase ([3]; nocodazole-synchronized, LAC 6 μM 3 h before and after release): at a similar pace as the control cells
